From ChEMBL document CHEMBL3751764, “Synthesis and in vitro antiproliferative activity of novel pyrazolo[3,4-d]pyrimidine derivatives” (Medchemcomm, 2015)
pIC50: −log10 of the molar value.

What was measured:
NCI-H226 = test: Cytotoxicity against human NCI-H226 cells assessed as cell growth at 10 uM after 72 hrs by SRB assay relative to control; assay type: functional; conditions: NCI-H226, 72 h, read-out: Activity
[1] = Cytotoxicity against human SF268 cells assessed as cell growth at 10 uM after 72 hrs by SRB assay relative to control; assay type: functional; conditions: SF-268, 72 h, read-out: Activity
[2] = Cytotoxicity against human SF295 cells assessed as cell growth at 10 uM after 72 hrs by SRB assay relative to control; assay type: functional; conditions: SF-295, 72 h, read-out: Activity
[3] = Cytotoxicity against human SNB75 cells assessed as cell growth at 10 uM after 72 hrs by SRB assay relative to control; assay type: functional; conditions: SNB-75, 72 h, read-out: Activity
U-251 = test: Cytotoxicity against human U251 cells assessed as cell growth at 10 uM after 72 hrs by SRB assay relative to control; assay type: functional; conditions: U-251, 72 h, read-out: Activity
M14 = test: Cytotoxicity against human M14 cells assessed as cell growth at 10 uM after 72 hrs by SRB assay relative to control; assay type: functional; conditions: M14, 72 h, read-out: Activity
MDA-MB-435 [4] = test: Cytotoxicity against human MDA-MB-435 cells assessed as cell growth at 10 uM after 72 hrs by SRB assay relative to control; assay type: functional; conditions: MDA-MB-435, 72 h, read-out: Activity
SK-MEL-2 = test: Cytotoxicity against human SK-MEL-2 cells assessed as cell growth at 10 uM after 72 hrs by SRB assay relative to control; assay type: functional; conditions: SK-MEL-2, 72 h, read-out: Activity
SK-MEL-28 = test: Cytotoxicity against human SK-MEL-28 cells assessed as cell growth at 10 uM after 72 hrs by SRB assay relative to control; assay type: functional; conditions: SK-MEL-28, 72 h, read-out: Activity
[5] = Cytotoxicity against human UACC62 cells assessed as cell growth at 10 uM after 72 hrs by SRB assay relative to control; assay type: functional; conditions: UACC-62, 72 h, read-out: Activity
[6] = Cytotoxicity against human IGROV1 cells assessed as cell growth at 10 uM after 72 hrs by SRB assay relative to control; assay type: functional; conditions: IGROV-1, 72 h, read-out: Activity
[7] = Cytotoxicity against human NCI-ADR-RES cells assessed as cell growth at 10 uM after 72 hrs by SRB assay relative to control; assay type: functional; conditions: read-out: Activity
[8] = Cytotoxicity against human SKOV3 cells assessed as cell growth at 10 uM after 72 hrs by SRB assay relative to control; assay type: functional; conditions: SK-OV-3, 72 h, read-out: Activity
786-0 = test: Cytotoxicity against human 786-0 cells assessed as cell growth at 10 uM after 72 hrs by SRB assay relative to control; assay type: functional; conditions: 786-0, 72 h, read-out: Activity
ACHN [9] = test: Cytotoxicity against human ACHN cells assessed as cell growth at 10 uM after 72 hrs by SRB assay relative to control; assay type: functional; conditions: read-out: Activity
[10] = Cytotoxicity against human RXF393 cells assessed as cell growth at 10 uM after 72 hrs by SRB assay relative to control; assay type: functional; conditions: RXF 393, 72 h, read-out: Activity
MCF7 = test: Cytotoxicity against human MCF7 cells assessed as cell growth at 10 uM after 72 hrs by SRB assay relative to control; assay type: functional; conditions: MCF7, 72 h, read-out: Activity
[11] = Cytotoxicity against human Hs 578T cells assessed as cell growth at 10 uM after 72 hrs by SRB assay relative to control; assay type: functional; conditions: read-out: Activity
CCRF-CEM [12] = test: Cytotoxicity against human CCRF-CEM cells after 72 hrs by SRB assay; assay type: functional
A549 = test: Cytotoxicity against human A549 cells after 72 hrs by SRB assay; assay type: functional, cell-based; conditions: A549, 72 h
[13] = Cytotoxicity against human COLO205 cells after 72 hrs by SRB assay; assay type: functional; conditions: COLO 205, 72 h
[14] = Cytotoxicity against human HCC2998 cells after 72 hrs by SRB assay; assay type: functional; conditions: HCC 2998, 72 h
[15] = Cytotoxicity against human SF268 cells after 72 hrs by SRB assay; assay type: functional; conditions: SF-268, 72 h
[16] = Cytotoxicity against human SF295 cells after 72 hrs by SRB assay; assay type: functional; conditions: SF-295, 72 h
[17] = Cytotoxicity against human SNB19 cells after 72 hrs by SRB assay; assay type: functional; conditions: SNB-19, 72 h
MDA-MB-435 [18] = test: Cytotoxicity against human MDA-MB-435 cells after 72 hrs by SRB assay; assay type: functional; conditions: MDA-MB-435, 72 h
[19] = Cytotoxicity against human OVCAR5 cells after 72 hrs by SRB assay; assay type: functional; conditions: OVCAR-5, 72 h
[20] = Cytotoxicity against human OVCAR8 cells after 72 hrs by SRB assay; assay type: functional; conditions: OVCAR-8, 72 h
[21] = Cytotoxicity against human SKOV3 cells after 72 hrs by SRB assay; assay type: functional; conditions: SK-OV-3, 72 h
ACHN [22] = test: Cytotoxicity against human ACHN cells after 72 hrs by SRB assay; assay type: functional
[23] = Cytotoxicity against human TK10 cells after 72 hrs by SRB assay; assay type: functional; conditions: TK-10, 72 h
MDA-MB-231 = test: Cytotoxicity against human MDA-MB-231 cells after 72 hrs by SRB assay; assay type: functional; conditions: MDA-MB-231, 72 h
CCRF-CEM [24] = test: Cytotoxicity against human CCRF-CEM cells assessed as cell growth at 10 uM after 72 hrs by SRB assay relative to control; assay type: functional; conditions: read-out: Activity
K562 = test: Cytotoxicity against human K562 cells assessed as cell growth at 10 uM after 72 hrs by SRB assay relative to control; assay type: functional; conditions: K562, 72 h, read-out: Activity
[25] = Cytotoxicity against human MOLT4 cells assessed as cell growth at 10 uM after 72 hrs by SRB assay relative to control; assay type: functional; conditions: MOLT-4, 72 h, read-out: Activity
[26] = Cytotoxicity against human HOP62 cells assessed as cell growth at 10 uM after 72 hrs by SRB assay relative to control; assay type: functional; conditions: HOP-62, 72 h, read-out: Activity
[27] = read-out: LC50 (the source's name)

## O=C(NC1CCCCC1)c1ccc(Nc2ncnc3c2cnn3-c2ccccc2)cc1
NCI-H226
  growth at 10 µM: 19.1%
[1]
  growth at 10 µM: 36.9%
[2]
  growth at 10 µM: 73.4%
[3]
  growth at 10 µM: -20.4%
U-251
  growth at 10 µM: 40.2%
M14
  growth at 10 µM: 69.1%
MDA-MB-435 [4]
  growth at 10 µM: 81.2%
SK-MEL-2
  growth at 10 µM: 79.1%
SK-MEL-28
  growth at 10 µM: 62.2%
[5]
  growth at 10 µM: 63.9%
[6]
  growth at 10 µM: 71.1%
[7]
  growth at 10 µM: 74.2%
[8]
  growth at 10 µM: 54%
786-0
  growth at 10 µM: 72.1%
ACHN [9]
  growth at 10 µM: 54.3%
[10]
  growth at 10 µM: 62.2%
MCF7
  growth at 10 µM: 82.8%
[11]
  growth at 10 µM: 0.22%
CCRF-CEM [12]
  GI50: > 100 µM
  TGI: > 100 µM
CCRF-CEM [12]; [27]
  CC50: > 100 µM
A549
  GI50: 4.38 µM
  pIC50: 4.18
  LC50: > 100 µM
  TGI: 51.3 µM
[13]
  GI50: 12.5 µM
  TGI: > 100 µM
[13]; [27]
  CC50: > 100 µM
[14]
  GI50: > 100 µM
  TGI: > 100 µM
[14]; [27]
  CC50: > 100 µM
[15]
  GI50: 5.85 µM
  TGI: > 100 µM
[15]; [27]
  CC50: > 100 µM
[16]
  GI50: 2.98 µM
  TGI: 13.3 µM
[16]; [27]
  CC50: 43.1 µM
[17]
  GI50: 3.82 µM
  TGI: 18.9 µM
[17]; [27]
  CC50: > 100 µM
MDA-MB-435 [18]
  GI50: 67.8 µM
  TGI: > 100 µM
MDA-MB-435 [18]; [27]
  CC50: > 100 µM
[19]
  GI50: 15.2 µM
  TGI: 95.2 µM
[19]; [27]
  CC50: > 100 µM
[20]
  GI50: 3.87 µM
  TGI: 19.3 µM
[20]; [27]
  CC50: > 100 µM
[21]
  GI50: 2.95 µM
  TGI: 8.7 µM
[21]; [27]
  CC50: 51.1 µM
ACHN [22]
  GI50: 3.32 µM
  TGI: 11 µM
ACHN [22]; [27]
  CC50: 37 µM
[23]
  GI50: 16.5 µM
  TGI: 49.5 µM
[23]; [27]
  CC50: > 100 µM
MDA-MB-231
  GI50: 5.09 µM
  TGI: 21.9 µM
MDA-MB-231; [27]
  CC50: 80.6 µM
CCRF-CEM [24]
  growth at 10 µM: 64.9%
K562
  growth at 10 µM: 73.2%
[25]
  growth at 10 µM: 89.5%
[26]
  growth at 10 µM: -66.5%
